# Organism: Rattus norvegicus
# Assay: DrugMatrix - Regimen: Daily Repeat
# Format: toxicity, organism-based, Sprague-Dawley
# Parameters: regimen Daily Repeat, gender Male, age 6-8 weeks
# Conditions: in vivo, po, route oral GAVAGE, vehicle 100 % WATER; for ABSOLUTE BASOPHIL / ABSOLUTE EOSINOPHIL / ABSOLUTE LYMPHOCYTE / ABSOLUTE MONOCYTE / ABSOLUTE SEGMENTED NEUTROPHIL / BASOPHIL / EOSINOPHIL / ERYTHROCYTE COUNT / HEMATOCRIT / HEMOGLOBIN / LEUKOCYTE COUNT / LYMPHOCYTE / MEAN CORPUSCULAR HEMOGLOBIN / MEAN CORPUSCULAR HEMOGLOBIN CONCENTRATION / MEAN CORPUSCULAR VOLUME / MONOCYTE / NEUTROPHIL / NUCLEATED RED BLOOD CELLS / PLATELET COUNT: tissue Blood; for ALANINE AMINOTRANSFERASE / ALBUMIN / ALKALINE PHOSPHATASE / ASPARTATE AMINOTRANSFERASE / BLOOD UREA NITROGEN / CARBON DIOXIDE / CHLORIDE / CHOLESTEROL / CREATINE PHOSPHOKINASE / CREATININE / GLUCOSE / LACTATE DEHYDROGENASE / LIPASE / PHOSPHORUS / POTASSIUM / SODIUM / TOTAL BILIRUBIN / TOTAL PROTEIN / URIC ACID: tissue Plasma
# [1] = 0 mg/kg, 72 h, dose level Control, time 3 day
# [2] = 0 mg/kg, 120 h, dose level Control, time 5 day
# [3] = 31 mg/kg, 72 h, dose level Low, time 3 day
smiles,measurement,setting,value
Nc1ccc(S(=O)(=O)Nc2nccs2)cc1 [SULFATHIAZOLE],ABSOLUTE BASOPHIL,[1],0 CELLS/uL
same,ABSOLUTE EOSINOPHIL,[1],0 CELLS/uL
same,ABSOLUTE LYMPHOCYTE,[1],8482.5 CELLS/uL
same,ABSOLUTE MONOCYTE,[1],63.83 CELLS/uL
same,ABSOLUTE SEGMENTED NEUTROPHIL,[1],887 CELLS/uL
same,BASOPHIL,[1],0%
same,EOSINOPHIL,[1],0%
same,ERYTHROCYTE COUNT,[1],5.49 x10E6/uL
same,HEMATOCRIT,[1],34.5%
same,HEMOGLOBIN,[1],13.33 G/DL
same,LEUKOCYTE COUNT,[1],9.43 x10E3/uL
same,LYMPHOCYTE,[1],90.17%
same,MEAN CORPUSCULAR HEMOGLOBIN,[1],24.3 pg
same,MEAN CORPUSCULAR HEMOGLOBIN CONCENTRATION,[1],38.63 G/DL
same,MEAN CORPUSCULAR VOLUME,[1],62.88 fL
same,MONOCYTE,[1],0.67%
same,NEUTROPHIL,[1],9.17%
same,NUCLEATED RED BLOOD CELLS,[1],0.67 /100WBC
same,PLATELET COUNT,[1],1022.83 x10E3/uL
same,ALANINE AMINOTRANSFERASE,[1],50.5 u/L
same,ALBUMIN,[1],4.08 G/DL
same,ALKALINE PHOSPHATASE,[1],368.33 u/L
same,ASPARTATE AMINOTRANSFERASE,[1],87.5 u/L
same,BLOOD UREA NITROGEN,[1],12.83 mg/dL
same,CARBON DIOXIDE,[1],32.83 mmol/L
same,CHLORIDE,[1],99.67 MEQ/L
same,CHOLESTEROL,[1],79.67 mg/dL
same,CREATINE PHOSPHOKINASE,[1],585 u/L
same,CREATININE,[1],0.22 mg/dL
same,GLUCOSE,[1],135.67 mg/dL
same,LACTATE DEHYDROGENASE,[1],171 u/L
same,LIPASE,[1],9.5 u/L
same,PHOSPHORUS,[1],11.18 mg/dL
same,POTASSIUM,[1],6.25 MEQ/L
same,SODIUM,[1],144.87 MEQ/L
same,TOTAL BILIRUBIN,[1],0.2 mg/dL
same,TOTAL PROTEIN,[1],6.08 G/DL
same,URIC ACID,[1],0.65 mg/dL
same,ABSOLUTE BASOPHIL,[2],0 CELLS/uL
same,ABSOLUTE EOSINOPHIL,[2],14.5 CELLS/uL
same,ABSOLUTE LYMPHOCYTE,[2],7596.17 CELLS/uL
same,ABSOLUTE MONOCYTE,[2],69.67 CELLS/uL
same,ABSOLUTE SEGMENTED NEUTROPHIL,[2],503 CELLS/uL
same,BASOPHIL,[2],0%
same,EOSINOPHIL,[2],0.17%
same,ERYTHROCYTE COUNT,[2],5.49 x10E6/uL
same,HEMATOCRIT,[2],34.72%
same,HEMOGLOBIN,[2],13.47 G/DL
same,LEUKOCYTE COUNT,[2],8.18 x10E3/uL
same,LYMPHOCYTE,[2],92.17%
same,MEAN CORPUSCULAR HEMOGLOBIN,[2],24.57 pg
same,MEAN CORPUSCULAR HEMOGLOBIN CONCENTRATION,[2],38.82 G/DL
same,MEAN CORPUSCULAR VOLUME,[2],63.3 fL
same,MONOCYTE,[2],1%
same,NEUTROPHIL,[2],6.67%
same,NUCLEATED RED BLOOD CELLS,[2],0 /100WBC
same,PLATELET COUNT,[2],1141 x10E3/uL
same,ALANINE AMINOTRANSFERASE,[2],48.33 u/L
same,ALBUMIN,[2],4.07 G/DL
same,ALKALINE PHOSPHATASE,[2],395.67 u/L
same,ASPARTATE AMINOTRANSFERASE,[2],85.67 u/L
same,BLOOD UREA NITROGEN,[2],15.83 mg/dL
same,CARBON DIOXIDE,[2],31.33 mmol/L
same,CHLORIDE,[2],100.83 MEQ/L
same,CHOLESTEROL,[2],62.33 mg/dL
same,CREATINE PHOSPHOKINASE,[2],248.33 u/L
same,CREATININE,[2],0.2 mg/dL
same,GLUCOSE,[2],135.67 mg/dL
same,LACTATE DEHYDROGENASE,[2],141.33 u/L
same,LIPASE,[2],9.5 u/L
same,PHOSPHORUS,[2],10.73 mg/dL
same,POTASSIUM,[2],6.07 MEQ/L
same,SODIUM,[2],145.35 MEQ/L
same,TOTAL BILIRUBIN,[2],0.22 mg/dL
same,TOTAL PROTEIN,[2],6.12 G/DL
same,URIC ACID,[2],0.63 mg/dL
same,ABSOLUTE BASOPHIL,[3],0 CELLS/uL
same,ABSOLUTE EOSINOPHIL,[3],0 CELLS/uL
same,ABSOLUTE LYMPHOCYTE,[3],8271.67 CELLS/uL
same,ABSOLUTE MONOCYTE,[3],54.33 CELLS/uL
same,ABSOLUTE SEGMENTED NEUTROPHIL,[3],707.33 CELLS/uL
same,BASOPHIL,[3],0%
same,EOSINOPHIL,[3],0%
same,ERYTHROCYTE COUNT,[3],5.15 x10E6/uL
same,HEMATOCRIT,[3],32.73%
same,HEMOGLOBIN,[3],12.87 G/DL
same,LEUKOCYTE COUNT,[3],9.03 x10E3/uL
same,LYMPHOCYTE,[3],91.33%
same,MEAN CORPUSCULAR HEMOGLOBIN,[3],25.13 pg
same,MEAN CORPUSCULAR HEMOGLOBIN CONCENTRATION,[3],39.33 G/DL
same,MEAN CORPUSCULAR VOLUME,[3],63.97 fL
same,MONOCYTE,[3],0.67%
same,NEUTROPHIL,[3],8%
same,NUCLEATED RED BLOOD CELLS,[3],0 /100WBC
same,PLATELET COUNT,[3],928 x10E3/uL
same,ALANINE AMINOTRANSFERASE,[3],54.67 u/L
same,ALBUMIN,[3],4.13 G/DL
same,ALKALINE PHOSPHATASE,[3],375.67 u/L
same,ASPARTATE AMINOTRANSFERASE,[3],86.67 u/L
same,BLOOD UREA NITROGEN,[3],13.67 mg/dL
same,CARBON DIOXIDE,[3],32 mmol/L
same,CHLORIDE,[3],100.33 MEQ/L
same,CHOLESTEROL,[3],70.33 mg/dL
same,CREATINE PHOSPHOKINASE,[3],289 u/L
same,CREATININE,[3],0.36 mg/dL
same,GLUCOSE,[3],128.67 mg/dL
same,LACTATE DEHYDROGENASE,[3],147.33 u/L
same,LIPASE,[3],11.67 u/L
same,PHOSPHORUS,[3],11.83 mg/dL
same,POTASSIUM,[3],6.53 MEQ/L
same,SODIUM,[3],144.47 MEQ/L
same,TOTAL BILIRUBIN,[3],0.2 mg/dL
same,TOTAL PROTEIN,[3],6.07 G/DL
same,URIC ACID,[3],0.8 mg/dL
